Assay results from paper PMC9570017, “Unorthodox PCNA Binding by Chromatin Assembly Factor 1” (International Journal of Molecular Sciences, 2022).

Key:
[1] = Size exclusion chromatography of PCNA-Y250I; type: physicochemical
Method: S3. Expression and purification of wild-type and mutant PCNA proteins in Escherichia […]
PCNA wild-type and mutants were expressed and purified as previously reported. In short, wild-type or mutant plasmids in pET23-C-His6-PCNA vectors were trans-formed and expressed in Codon Plus BL21(DE3) pLysS E. coli (Stratagene) cells. Single colonies were inoculated and grown overnight in the Luria-Bertani medium containing 100 µg/mL ampicillin to saturation at 37°C. The next day the cells were diluted and grown to mid-exponential phase (0.6-0.8) at OD600 nm, and the expression was induced with 1 mM isopropyl-β-D-thiogalactopyranoside (IPTG) for 4 h. PCNA mutants were transformed and expressed in a similar way.
Cells were spun in an Avanti J-26XP high performance centrifuge from Beckman Coul-ter with a fixed angle rotor (JLA-8.1000) at 9000 x g for 30 min at 4°C and the pellets from 1 litre of cell culture were resuspended in 50 mL of lysis buffer containing 50 mM sodium phosphate pH 8.0, 150 mM NaCl, 10% glycerol, 20 mM imidazole, 0.02% nonidet P-40, 2 mM DTT. […]
The eluate was subsequently purified with a Superdex™ 200 gel filtration column (GE Healthcare) in gel filtration buffer 20 mM Tris pH 7.5, 150 mM NaCl, 1 mM DTT. The fractions corresponding to PCNA homotrimer were pooled, concentrated with an amicon concentrator with 3 kDa MWCO, quantified using absorbance at A280 nm, and stored at - […]

PCNA-Y250I = assay: Isothermal titration calorimetry (ITC), wild-type PIP titrated into PCNA-Y250I; type: binding, human; conditions: 23 °C, 10 mM sodium phosphate, pH 7.0, 10 mM NaCl
Method: Recombinant PCNA, PCNA-Y250I, and the PIP peptides (wild-type, R426D) were expressed and purified as described in the Supplementary Materials section—“Expression and purification of recombinant proteins”. The proteins were dialyzed against three 4-litre changes of ITC buffer containing 10 mM sodium phosphate, pH 7.0, and 10 mM NaCl at 4 °C overnight. The concentrations of PCNA and PIP peptides were determined by measuring tyrosine absorption at A280nm. ITC titrations of peptides into PCNA were performed at 23 °C in the ITC buffer (10 mM sodium phosphate, pH 7.0, 10 mM NaCl) using a MicroCal VP-ITC system. The concentrations of injected wild-type and mutant PIP in the syringe varied from 200 to 500 μM, whereas PCNA in the ITC sample cell varied depending on the experiment from 20 to 50 μM PCNA monomer. The protein and peptide samples were degassed before the ITC run. Data analysis was performed using the MicroCal Origin 7.0 software (OriginLab Corporation, Northampton, MA, USA) and all experiments fit the single binding site model. […]
S1. […] The C-terminal tyrosine was added to aid in peptide detection during the purification by measuring the absorbance at 280 nm. […] The next day, the saturated cells were diluted to 0.05 OD measured at A600 nm and the cells were grown at 37°C until the cells reach the mid-exponential phase of 0.6-0.8 at OD A600 nm. […]

human PCNA = molecular target: T1, human PCNA (Homo sapiens, UniProt P12004); assay: Isothermal titration calorimetry (ITC), PIP peptide titrated into wild-type PCNA; type: binding
T1 construct: His6 (C); made in house; host or cells: E. coli Codon Plus BL21(DE3) pLysS
Text: The wild-type and R426D peptides were expressed as GST fusions in E. coli, purified to homogeneity (see Materials and Methods) and used in isothermal titration calorimetry (ITC) assays with human PCNA purified from E. coli.
Recombinant PCNA, PCNA-Y250I, and the PIP peptides (wild-type, R426D) were expressed and purified as described in the Supplementary Materials section—“Expression and purification of recombinant proteins”. The proteins were dialyzed against three 4-litre changes of ITC buffer containing 10 mM sodium phosphate, pH 7.0, and 10 mM NaCl at 4 °C overnight. The concentrations of PCNA and PIP peptides were determined by measuring tyrosine absorption at A280nm. ITC titrations of peptides into PCNA were performed at 23 °C in the ITC buffer (10 mM sodium phosphate, pH 7.0, 10 mM NaCl) using a MicroCal VP-ITC system. The concentrations of injected wild-type and mutant PIP in the syringe varied from 200 to 500 μM, whereas PCNA in the ITC sample cell varied depending on the experiment from 20 to 50 μM PCNA monomer. The protein and peptide samples were degassed before the ITC run. Data analysis was performed using the MicroCal Origin 7.0 software (OriginLab Corporation, Northampton, MA, USA) and all experiments fit the single binding site model.
Supplementary Materials-Expression and purification of recombinant proteins
S1. Expression and purification of GST-PIP fusion proteins in Escherichia coli Wild-type p150 PIP and R426D peptides were constructed as GST-fusion proteins with a tyrosine at the C-terminus of the peptide. The C-terminal tyrosine was added to aid in peptide detection during the purification by measuring the absorbance at 280 nm. The DNA fragments encoding the GST fusion proteins were inserted into a pGEX-TEV vector, which is essentially a modified pGEX-2T vector where the thrombin cleavage site was replaced with a TEV cleavage site. The pGEX-TEV plasmid was digested with BamHI and EcoRI and ligated to DNA fragments encoding either the p150 PIP wild-type and R426D. The plasmids pGEX-TEV-PIP wild type and pGEX-TEV-PIP R426D were con-firmed by DNA sequencing and then expressed in Escherichia coli host strain TOPP2 (Strat-agene) with 100 µg/ml ampicillin to saturation at 37°C. The next day, the saturated cells were diluted to 0.05 OD measured at A600 nm and the cells were grown at 37°C until the cells reach the mid-exponential phase of 0.6-0.8 at OD A600 nm. The cells were then in-duced with 1 mM isopropyl-D-thiogalactopyranoside (IPTG) for 4 h. Eight litres of cell culture were grown each for the wild-type and R426D mutant. The cells were then har-vested by centrifugation in an Avanti J-26XP high-performance centrifuge from Beckman Coulter with a fixed angle rotor (JLA-8.1000) at 9000 x g for 30 min at 4°C. The pellet from 1 litre cells equivalent was lysed in 10 ml of lysis buffer containing 20 mM Tris pH 7.5, 1 M NaCl, 0.2 mM EDTA, 1 mM DTT, 50 µg/ml lysozyme, 1 mM AEBSF and one tablet of cOmplete™ Mini EDTA-free Protease Inhibitor Cocktail Tablets (Roche). The cell pellet was sonicated in the lysis buffer on ice, at power output level 4 with 10 seconds pulse on and 30 seconds off at 6 watts using a Misonix 3000 Ultrasonic cell disruptor and wider probe. The lysate was clarified by centrifugation for 30 min in an Avanti J-26XP with a fixed angle rotor 25.50 at 30966 x g at 4°C. The clarified supernatant was incubated on a nutator for 6 h at 4°C with 10 ml of glutathione-Sepharose (GSH) resin (Amersham) pre-washed and equilibrated with lysis buffer. After incubation the GSH resin was pelleted, the unbound supernatant was removed, and the resin was washed thrice with lysis buffer and twice with Tobacco Etch Virus (TEV) protease buffer (20 mM sodium phosphate pH 6.5, 50 mM NaCl, 2 mM DTT). The peptide was cleaved from the GSH resin by incubating in the presence of TEV protease overnight at 4°C. The next day, the supernatant was har-vested by centrifugation, and the GSH resin was washed twice with 20 mM sodium phos- […]

[2] = ITC at 296 K, 10 mM Na-phosphate (pH 7.0), 10 mM NaCl

T1 sequence (P12004 whole entry): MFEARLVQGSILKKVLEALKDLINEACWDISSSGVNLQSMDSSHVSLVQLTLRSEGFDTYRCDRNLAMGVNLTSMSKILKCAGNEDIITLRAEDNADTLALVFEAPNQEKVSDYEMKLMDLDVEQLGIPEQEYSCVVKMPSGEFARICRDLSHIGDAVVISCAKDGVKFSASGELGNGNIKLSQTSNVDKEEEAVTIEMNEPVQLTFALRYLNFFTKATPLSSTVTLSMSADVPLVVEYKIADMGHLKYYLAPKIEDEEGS

N (stoichiometry of peptide binding per PCNA monomer) (human PCNA; [2])	ΔG (human PCNA; [2]) [kcal/mol]	ΔH (human PCNA; [2]) [kcal/mol]	ΔS (human PCNA; [2]) [cal K^−1 mol^−1]	Kd (human PCNA; ITC at 296 K, 10 mM Na-phosphate (pH 7.0), 10 mM NaCl, one binding site per PCNA monomer, PIP 200 to 500 μM in syringe, PCNA 20 to 50 μM monomer) [µM]	stoichiometry (PIP per PCNA monomer) (human PCNA; ITC, 23 °C, 10 mM sodium phosphate, pH 7.0, 10 mM NaCl)	Substance	aggregation [1]	heat exchange / binding to PCNA-Y250I (PCNA-Y250I)
						PCNA-Y250I: PCNA mutated at the tyrosine involved in the cation-π interaction with CAF-1 p150 Arg426	no evidence of aggregation	
0.83	-6.25	-1.868	14.8	24	0.83	KAEITRFF [CAF-1 PIP wild type, wild-type p150 PIP expressed as GST fusion with C-terminal tyrosine, TEV-cleaved and purified, used for ITC]		no detectable heat exchange observed by ITC
